Assay type in all cases: cell-based
In assay [1] the test system is HCC827-SVD cells (human EGFR exon 20 insertion mutant D770_N771insSVD). Description: Cell growth inhibition (CellTiter-Glo), HCC827-SVD. The note with it: 72 h, 3 days. A digest of the protocol:
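HCC827 cells with endogenous EGFR knocked out and lentivirally expressing the insertion mutant (single clone) were seeded at 5000 cells/well in RPMI with 10% FBS. After overnight, compounds added; 3 days at 37 °C, then CellTiter-Glo luminescence.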
(In general: Cellular ATP, detected with luciferase, serves as a proxy for viable cell number.)

Assay [2] deals with HCC827-YVMA cells (human ERBB2 exon20 insertion mutant A775_G776ins YVMA). The experiment in a line: Cell growth inhibition (CellTiter-Glo), HCC827-YVMA. The note with it: 72 h, HCC827-YVMA cells, 3 days, CellTiter-Glo, read-out: Cell growth inhibition, GI50 (nM) HCC827-YVMA. A digest of the protocol: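 HCC827 cells transduced with lentiviral codon-optimized mutant (ERBB2 A775_G776insYVMA or EGFR V769_D770insASV), endogenous EGFR knocked out by CRISPR, single clone selected. Cells seeded overnight in RPMI/10% FBS, then exposed to serially diluted compounds at 37 °C for 3 days; viability read by CellTiter-Glo luminescence.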

The subject of another assay is HCC827 cells. Description: Cell growth inhibition (CellTiter-Glo), HCC827. The settings on record: Homo sapiens, 72 h, 3 days. The procedure: 2. Cell Growth Inhibition for HCC827, HCC827-SVD, HCC827-ASV, HCC827-YVMA, and A431.
HCC827(ATCC), HCC827-SVD, HCC827-ASV, and HCC827-YVMA cells were seeded in 96-well plates at 5000 cells/well in 90 μL of RPMI growth medium containing 10% FBS and 1% Penicillin Streptomycin. A431 (ATCC) cells were seeded in 96-well plates at 5000 cells/well in 90 μL of DMEM growth medium containing 10% FBS and 1% Penicillin Streptomycin. Cells were incubated at 37° C. overnight and then administered with 10 μL 10× test compounds prepared in the growth medium at various concentrations. After administration of the compounds, cells were incubated at 37° C. for 3 days. Before the CellTiter-Glo assay, the plates were equilibrated at room temperature for approximately 30 minutes. 100 ul of CellTiter-Glo reagent (Promega) was added to each well. The plates were then incubated at room temperature for 10 minutes and luminescence was recorded by the EnSight® multimode plate reader (PerkinElmer). Table 7 listed selected compounds in cellular growth assay.

This note sets out measurements from patent publication US20240059698A1 (Accutar Biotechnology Inc., priority 2022, published 2024).

The structures appear in SMILES notation.

For orientation: GI50 means the concentration giving 50% growth inhibition. In the case of `C=CC(=O)N1CCC(c2c[nH]c3ncnc(Nc4ccc(OCc5nc(C(F)(F)F)cs5)c(Cl)c4)c23)CC1` [Compound 103, 1-(4-(4-((3-chloro-4-((4-(trifluoromethyl)thiazol-2-yl)methoxy)phenyl)amino)-7H-pyrrolo[2,3-d]pyrimidin-5-yl)piperidin-1-yl)prop-2-en-1-one], the GI50 (in assay [1]; in assay [2]; in the assay on HCC827 cells) was 50 to 200 nM throughout.

For `C=CC(=O)N1CCC(c2c[nH]c3ncnc(Nc4ccc(Oc5ccnc(Nc6ccccc6)c5)cc4F)c23)CC1` [Compound 104, 1-(4-(4-((2-fluoro-4-((2-(phenylamino)pyridin-4-yl)oxy)phenyl)amino)-7H-pyrrolo[2,3-d]pyrimidin-5-yl)piperidin-1-yl)prop-2-en-1-one], the GI50 in assay [1] was 50 to 200 nM; in assay [2] it was under 50 nM; in the assay with HCC827 cells, 200 to 1000 nM.

With `C=CC(=O)N1CCC(c2c[nH]c3ncnc(Nc4ccc(OCc5ccccn5)cc4F)c23)CC1` [Compound 105, 1-(4-(4-((2-fluoro-4-(pyridin-2-ylmethoxy)phenyl)amino)-7H-pyrrolo[2,3-d]pyrimidin-5-yl)piperidin-1-yl)prop-2-en-1-one], the GI50 (in assay [1]; in assay [2]; with HCC827 cells) was under 50 nM in each case.

For the compound `C=CC(=O)N1CCC(c2c[nH]c3ncnc(Nc4ccc(OCc5ccccn5)c(Cl)c4F)c23)CC1` [Compound 106, 1-[4-[4-[3-chloro-2-fluoro-4-(2-pyridylmethoxy)anilino]-7H-pyrrolo[2,3-d]pyrimidin-5-yl]-1-piperidyl]prop-2-en-1-one], the GI50 (in assay [1]; in assay [2]; in the assay on HCC827 cells) was under 50 nM in each case.

Regarding `C=CC(=O)N1CCC(c2c[nH]c3ncnc(Nc4ccc(Oc5ccnc(N6CC(C(F)(F)F)C6)c5)cc4F)c23)CC1` [Compound 107, 1-(4-(4-((2-fluoro-4-((2-(3-(trifluoromethyl)azetidin-1-yl)pyridin-4-yl)oxy)phenyl)amino)-7H-pyrrolo[2,3-d]pyrimidin-5-yl)piperidin-1-yl)prop-2-en-1-one], the GI50 in assay [1] is 200 to 1000 nM; in assay [2] it was 50 to 200 nM; in the assay with HCC827 cells it was over 1000 nM.

For `C=CC(=O)N1CCC(c2c[nH]c3ncnc(Nc4ccc(OCc5cnn(C(C)C)c5)c(Cl)c4)c23)CC1` [Compound 108, 1-(4-(4-((3-chloro-4-((1-isopropyl-1H-pyrazol-4-yl)methoxy)phenyl)amino)-7H-pyrrolo[2,3-d]pyrimidin-5-yl)piperidin-1-yl)prop-2-en-1-one], the 50% growth inhibitory concentration (GI50) in assay [1] was over 1000 nM; in assay [2], over 1000 nM; in the assay with HCC827 cells it was 200 to 1000 nM.

As for `C=CC(=O)N1CCC(c2c[nH]c3ncnc(Nc4ccc(Oc5ccnc(NC6CCC6)c5)cc4F)c23)CC1` [Compound 109, 1-[4-[4-[4-[[2-(cycloButylamino)-4-pyridyl]oxy]-2-fluoro-anilino]-7H-pyrrolo[2,3-d]pyrimidin-5-yl]-1-piperidyl]prop-2-en-1-one], the figures for the GI50 (in assay [1]; in assay [2]; in the assay with HCC827 cells) were 50 to 200 nM, under 50 nM and under 50 nM, respectively.

In the case of `C=CC(=O)N1CCC(c2c[nH]c3ncnc(Nc4ccc(OCc5ccc(C(F)(F)F)cn5)c(Cl)c4)c23)CC1` [Compound 112, 1-(4-(4-((3-chloro-4-((5-(trifluoromethyl)pyridin-2-yl)methoxy)phenyl)amino)-7H-pyrrolo[2,3-d]pyrimidin-5-yl)piperidin-1-yl)prop-2-en-1-one], the GI50 in assay [1] was in the range of 200 to 1000 nM; in assay [2], 50 to 200 nM; in the assay on HCC827 cells, 50 to 200 nM.

On to `C=CC(=O)N1CCC(c2c[nH]c3ncnc(Nc4ccc(OCc5ccncn5)c(Cl)c4)c23)CC1` [Compound 114, 1-(4-(4-((3-chloro-4-(pyrimidin-4-ylmethoxy)phenyl)amino)-7H-pyrrolo[2,3-d]pyrimidin-5-yl)piperidin-1-yl)prop-2-en-1-one], for which the GI50 (in assay [1]; in assay [2]; in the assay with HCC827 cells) was under 50 nM each time.

As for `C=CC(=O)N1CCC(c2c[nH]c3ncnc(Nc4ccc(Oc5ccnc(-n6ccc(OC(C)C)n6)c5)cc4F)c23)CC1` [Compound 115, 1-(4-(4-((2-fluoro-4-((2-(3-isopropoxy-1H-pyrazol-1-yl)pyridin-4-yl)oxy)phenyl)amino)-7H-pyrrolo[2,3-d]pyrimidin-5-yl)piperidin-1-yl)prop-2-en-1-one], the GI50 (in assay [1]; in assay [2]; with HCC827 cells) was 50 to 200 nM each time.

Consider `C=CC(=O)N1CCC(c2c[nH]c3ncnc(Nc4ccc(OCc5cc(Cl)ccn5)c(Cl)c4)c23)CC1` [Compound 117, 1-(4-(4-((3-chloro-4-((4-chloropyridin-2-yl)methoxy)phenyl)amino)-7H-pyrrolo[2,3-d]pyrimidin-5-yl)piperidin-1-yl)prop-2-en-1-one], for which the 50% growth inhibitory concentration (GI50) (in assay [1]; in assay [2]; with HCC827 cells) was under 50 nM throughout.

For the compound `C=CC(=O)N1CCC(c2c[nH]c3ncnc(Nc4ccc(OCc5ccc(F)cn5)c(Cl)c4)c23)CC1` [Compound 118, 1-(4-(4-((3-chloro-4-((5-fluoropyridin-2-yl)methoxy)phenyl)amino)-7H-pyrrolo[2,3-d]pyrimidin-5-yl)piperidin-1-yl)prop-2-en-1-one], the GI50 (in assay [1]; in assay [2]; with HCC827 cells) was under 50 nM in each case.

With `C=CC(=O)N1CCC(c2c[nH]c3ncnc(Nc4ccc(OCc5cccnn5)c(Cl)c4)c23)CC1` [Compound 120, 1-[4-[4-[3-chloro-4-(pyridazin-3-ylmethoxy)anilino]-7H-pyrrolo[2,3-d]pyrimidin-5-yl]-1-piperidyl]prop-2-en-1-one], the 50% growth inhibitory concentration (GI50) (in assay [1]; in assay [2]; in the assay on HCC827 cells) was under 50 nM in each case.

On to `C=CC(=O)N1CCC(c2c[nH]c3ncnc(Nc4ccc(OCc5cccnc5)c(Cl)c4)c23)CC1` [Compound 121, 1-(4-(4-((3-chloro-4-(pyridin-3-ylmethoxy)phenyl)amino)-7H-pyrrolo[2,3-d]pyrimidin-5-yl)piperidin-1-yl)prop-2-en-1-one], for which the 50% growth inhibitory concentration (GI50) (in assay [1]; in assay [2]; with HCC827 cells) was under 50 nM in each case.

As to `C=CC(=O)N1CCC(c2c[nH]c3ncnc(Nc4ccc(Oc5ccnc(N6CCC(O)(C(F)(F)F)CC6)c5)cc4F)c23)CC1` [Compound 122, 1-(4-(4-((2-fluoro-4-((2-(4-hydroxy-4-(trifluoromethyl)piperidin-1-yl)pyridin-4-yl)oxy)phenyl)amino)-7H-pyrrolo[2,3-d]pyrimidin-5-yl)piperidin-1-yl)prop-2-en-1-one], the GI50 in assay [1] was 200 to 1000 nM; in assay [2] it was 200 to 1000 nM; with HCC827 cells it was over 1000 nM.

Regarding `C=CC(=O)N1CCC(c2c[nH]c3ncnc(Nc4ccc(Oc5ccnc(-c6cnn(C)c6)c5)cc4F)c23)CC1` [Compound 125, 1-(4-(4-((2-fluoro-4-((2-(1-methyl-1H-pyrazol-4-yl)pyridin-4-yl)oxy)phenyl)amino)-7H-pyrrolo[2,3-d]pyrimidin-5-yl)piperidin-1-yl)prop-2-en-1-one], the GI50 in assay [1] was 200 to 1000 nM; in assay [2], 200 to 1000 nM; in the assay with HCC827 cells it was over 1000 nM.

As for `C=CC(=O)N1CCC(c2c[nH]c3ncnc(Nc4ccc(OCc5ccc(Cl)cn5)c(Cl)c4)c23)CC1` [Compound 126, 1-(4-(4-((3-chloro-4-((5-chloropyridin-2-yl)methoxy)phenyl)amino)-7H-pyrrolo[2,3-d]pyrimidin-5-yl)piperidin-1-yl)prop-2-en-1-one], the concentration for 50% growth inhibition (GI50) (in assay [1]; in assay [2]; with HCC827 cells) was under 50 nM each time.

Take `C=CC(=O)N1CCC(c2c[nH]c3ncnc(Nc4ccc(OCc5ccncc5)c(Cl)c4)c23)CC1` [Compound 127, 1-(4-(4-((3-chloro-4-(pyridin-4-ylmethoxy)phenyl)amino)-7H-pyrrolo[2,3-d]pyrimidin-5-yl)piperidin-1-yl)prop-2-en-1-one]: the GI50 in assay [1] is under 50 nM; in assay [2], under 50 nM; in the assay on HCC827 cells it was 50 to 200 nM.

Turning to `C=CC(=O)N1CCC(c2c[nH]c3ncnc(Nc4ccc(OCc5ncccn5)c(Cl)c4)c23)CC1` [Compound 128, 1-(4-(4-((3-chloro-4-(pyrimidin-2-ylmethoxy)phenyl)amino)-7H-pyrrolo[2,3-d]pyrimidin-5-yl)piperidin-1-yl)prop-2-en-1-one], the GI50 (in assay [1]; in assay [2]; in the assay with HCC827 cells) was under 50 nM each time.

Turning to `C=CC(=O)N1CCC(c2c[nH]c3ncnc(Nc4ccc(Oc5ccnc(N6CC7CC7C6)c5)cc4F)c23)CC1` (stereo not drawn) [Compound 131, 1-(4-(4-((4-((2-(3-azabicyclo[3.1.0]hexan-3-yl)pyridin-4-yl)oxy)-2-fluorophenyl)amino)-7H-pyrrolo[2,3-d]pyrimidin-5-yl)piperidin-1-yl)prop-2-en-1-one], the GI50 was 50 to 200 nM in assay [1], 50 to 200 nM in assay [2] and over 1000 nM in the assay on HCC827 cells.
